The target in the experiment is GHS-R (Homo sapiens, UniProt Q92847). Briefly: cell based assay of GHS-R antagonist/agonist activity. Also on record: key: A refers to a compound having antagonist activity with Ki<100 nM in a cell based assay; B refers to a compound having agonist activity with EC50<100 nM in a cell based assay; C refers to a compound having antagonist activity of Ki>100 nM and <1500 nM in a cell based assay; D refers to a compound having antagonist activity with Ki, <100 nM and agonist activity with EC50<100 nM in a cell-based assay; E refers to other exemplary compounds. Conditions: GHS-R antagonist Ki and/or agonist EC50 class. The method, then:
Cell-Based Activity Assays. For example, the ability of the compound to modulate accumulation of a second messenger signaling component downstream of GHS-R can be evaluated. For example, inositol phosphates (IP), as a result of Gq signaling in a mammalian cell, e.g., a Cos-7 cells. Other tissue culture cells, Xenopus oocytes, and primary cells can also be used.
Phosphatidylinositol turnover assay. One day after transfection COS-7 cells are incubated for 24 hours with 5 μCi of [^3H]-myo-inositol in 1 ml medium supplemented with 10% fetal calf serum, 2 mM glutamine and 0.01 mg/ml gentamicin per well. Cells are then washed twice in buffer, 20 mM HEPES, pH 7.4, supplemented with 140 mM NaCl, 5 mM KCl, 1 mM MgSO4, 1 mM CaCl2, mM glucose, 0.05% (w/v) bovine serum; and incubated in 0.5 ml buffer supplemented with 10 mM LiCl at 37° C. for 30 min. For some assays, it is also useful to incubate the cells with adenosine deaminase ADA (200 U/mg, Boehringer Mannheim, Germany) for 30 min in a concentration of 1 U/ml.
After incubation with the compound of interest for 45 min at 37° C., cells are extracted with 10% ice-cold perchloric acid and placed on ice for 30 min. The resulting supernatants are neutralized with KOH in HEPES buffer, and [^3H]-inositol phosphate is purified on Bio-Rad AG 1-X8 anion exchange resin as described. Assays can be run in duplicate, triplicate, etc.
Other second messenger assays. Another second messenger that can be evaluated is Ca^2+. Ca^2+ mobilization can be evaluated using a calcium sensitive detector, such as aequorin protein or a dye, e.g., FURA-2. In an exemplary assay, calcium mobilization is evaluated in a recombinant cell that expresses GHS-R and aequorin.
Gene expression assay. HEK293 cells (30 000 cells/well) seeded in 96-well plates are transiently transfected with a mixture of pFA2-CREB and pFR-Luc reporter plasmid (PathDetect™ CREB trans-Reporting System, Stratagene) and nucleic acid encoding GHS. One day after transfection, cells are treated with the compound of interest in an assay volume of 100 μl medium for 5 hrs. After treatment, cells are cultured in low serum (2.5%). After the incubation period, the assay is ended by washing the cells twice with PBS and adding 100 μl luciferase assay reagent (LucLite™, Packard Bioscience). Luminescence is measured (e.g., as relative light units (RLU)) using in a luminometer such as the TopCounter™ (Packard Bioscience) for 5 sec.
IC50 and EC50 values can be determined by nonlinear regression, e.g., using the Prism 3.0 software (GraphPad Software, San Diego).

Consider 34 compounds from patent publication US7897765B2, “Therapeutic compounds and uses thereof” (Elixir Pharmaceuticals, Inc., priority 2003, dated 2011).

GHS-R, sequence (Q92847 whole entry, species assumed): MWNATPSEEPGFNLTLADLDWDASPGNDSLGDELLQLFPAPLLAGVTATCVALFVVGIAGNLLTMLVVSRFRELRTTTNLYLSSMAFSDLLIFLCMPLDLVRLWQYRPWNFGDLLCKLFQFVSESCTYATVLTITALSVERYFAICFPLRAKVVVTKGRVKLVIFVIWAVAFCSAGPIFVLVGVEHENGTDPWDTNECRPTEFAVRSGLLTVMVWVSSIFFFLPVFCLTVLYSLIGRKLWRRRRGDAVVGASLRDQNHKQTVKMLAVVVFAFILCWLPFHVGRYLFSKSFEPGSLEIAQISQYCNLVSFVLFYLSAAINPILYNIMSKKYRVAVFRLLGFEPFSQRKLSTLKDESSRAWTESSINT

On to `CC(OCc1ccccc1)[C@@H](CC(=O)N1CCC2(CC1)CN(S(C)(=O)=O)c1ccccc12)NC(=O)C1CCN(C)CC1` (stereo partly shown) [Compound 142], for which the Activity result is given as “E”.
Take `CS(=O)(=O)N1CC2(CCN(C(=O)[C@@H](COCc3ccccc3)NC(=O)c3cccc(CN)c3)CC2)c2ccccc21` [Compound 122]: the Activity entry is on record as “E”.
For `COc1cccc(NC(=O)N2CC3(CCN(C(=O)[C@@H](COCc4ccccc4)NC(=O)CN(C)C)CC3)c3ccccc32)c1` [Compound 69], the Activity entry was “E”.
Under `CN(C)Cc1ccc(C(=O)N[C@H](COCc2ccccc2)C(=O)N2CCC3(CC2)CN(S(C)(=O)=O)c2ccccc23)cc1` [Compound 40] stands “C (C refers to a compound having antagonist activity of Ki>100 nM and <1500 nM in a cell based assay)”; under `CS(=O)(=O)N1CC2(CCN(C(=O)[C@@H](COCc3ccccc3)NS(=O)(=O)CCCCl)CC2)c2ccccc21` [Compound 153], “A (A refers to a compound having antagonist activity with Ki<100 nM in a cell based assay)”; under `CN1CCC[C@H]1CC(=O)N[C@H](COCc1ccccc1)C(=O)N1CCC2(CC1)CN(S(C)(=O)=O)c1ccccc12` [Compound 113], “E”.
`CC(C)(C)NC(=S)N[C@H](COCc1ccccc1)C(=O)N1CCC2(CC1)CN(S(C)(=O)=O)c1ccccc12` [Compound 85]: the Activity result is “E”.
The result for `CN(C)Cc1cccc(C(=O)N[C@H](COCc2ccccc2)C(=O)N2CCC3(CC2)CN(S(C)(=O)=O)c2ccccc23)c1` [Compound 6] reads “A (A refers to a compound having antagonist activity with Ki<100 nM in a cell based assay)”; that for `CN(C)C[C@H]1CCC[C@@H](C(=O)N[C@H](COCc2ccccc2)C(=O)N2CCC3(CC2)CN(S(C)(=O)=O)c2ccccc23)C1` [Compound 10], “D (D refers to a compound having antagonist activity with Ki, <100 nM and agonist activity with EC50<100 nM in a cell-based assay)”.
In the case of `CC(C)(C)OC(=O)NC(C)(C)C(=O)N[C@H](COCc1ccccc1)C(=O)N1CCC2(CC1)CN(S(C)(=O)=O)c1ccccc12` [Compound 50], the Activity result is recorded as “E”.
For `CS(=O)(=O)N1CC2(CCN(C(=O)[C@@H](COCc3ccccc3)NC(=O)C3=CCCNC3)CC2)c2ccccc21` [Compound 107], the Activity entry was “E”.
Under `CN[C@H](C)C(=O)N[C@H](COCc1ccccc1)C(=O)N1CCC2(CC1)CN(S(C)(=O)=O)c1ccccc12` [Compound 130] stands “B (B refers to a compound having agonist activity with EC50<100 nM in a cell based assay)”.
For the compound `CC(C)CCN1CCC(C(=O)N[C@H](COCc2ccccc2)C(=O)N2CCC3(CC2)CN(S(C)(=O)=O)c2ccccc23)CC1` [Compound 43], the Activity entry is “C (C refers to a compound having antagonist activity of Ki>100 nM and <1500 nM in a cell based assay)”.
Under `CN(C)C1(C(=O)N[C@H](COCc2ccccc2)C(=O)N2CCC3(CC2)CN(S(C)(=O)=O)c2ccccc23)CCCCC1` [Compound 118] stands “E”.
On to `CC(C)(C)NCCS(=O)(=O)N[C@H](COCc1ccccc1)C(=O)N1CCC2(CC1)CN(S(C)(=O)=O)c1ccccc12` [Compound 145], for which the Activity entry was “E”.
Under `CC(C)(C)OC(=O)N[C@H](COCc1ccccc1)C(=O)N1CCC2(CC1)CN(C(=O)CC(=O)O)c1ccccc12` [Compound 62] stands “E”.
Under `CN(C)CC(=O)N[C@H](COCc1ccccc1)C(=O)N1CCC2(CC1)CN(S(=O)(=O)Cc1ccccc1)c1ccccc12` [Compound 26] stands “C (C refers to a compound having antagonist activity of Ki>100 nM and <1500 nM in a cell based assay)”; under `COCC(=O)N[C@H](COCc1ccccc1)C(=O)N1CCC2(CC1)CN(S(C)(=O)=O)c1ccccc12` [Compound 31], “C (C refers to a compound having antagonist activity of Ki>100 nM and <1500 nM in a cell based assay)”.
Take `CS(=O)(=O)N1CC2(CCN(C(=O)[C@@H](COCc3ccccc3)NC(=O)C3(N)CC3)CC2)c2ccccc21` [Compound 120]: the Activity entry is given as “E”.
The result for `CN(C)CC(=O)N[C@H](Cc1ccccc1)C(=O)N1CCC2(CC1)CN(S(C)(=O)=O)c1ccccc12` [Compound 123] reads “E”; that for `C[C@H](C(=O)N[C@H](COCc1ccccc1)C(=O)N1CCC2(CC1)CN(S(C)(=O)=O)c1ccccc12)N(C)C` [Compound 14], “A (A refers to a compound having antagonist activity with Ki<100 nM in a cell based assay)”.
For `CC(C)(C)OC(=O)N[C@H](COCc1ccccc1)C(=O)N1CCC2(CC1)CN(S(C)(=O)=O)c1ccccc12` [Compound 9], the Activity result is “A (A refers to a compound having antagonist activity with Ki<100 nM in a cell based assay)”.
With `CS(=O)(=O)N1CC2(CCN(C(=O)[C@@H](COCc3ccccc3)NC(=O)c3ccccn3)CC2)c2ccccc21` [Compound 53], the Activity result is given as “E”.
The result for `CCN(C)CCC(=O)N[C@H](COCc1ccccc1)C(=O)N1CCC2(CC1)CN(S(C)(=O)=O)c1ccccc12` [Compound 15] reads “C (C refers to a compound having antagonist activity of Ki>100 nM and <1500 nM in a cell based assay)”; that for `CC(C)(C)OC(=O)N1CC=C(C(=O)N[C@H](COCc2ccccc2)C(=O)N2CCC3(CC2)CN(S(C)(=O)=O)c2ccccc23)CC1` [Compound 98], “E”.
In the case of `CN(C)CC(=O)N1CC2(CCN(C(=O)[C@@H](COCc3ccccc3)NC(=O)OC(C)(C)C)CC2)c2ccccc21` [Compound 63], the Activity entry is given as “E”.
Under `CN1CCCC[C@@H]1C(=O)N[C@H](COCc1ccccc1)C(=O)N1CCC2(CC1)CN(S(C)(=O)=O)c1ccccc12.Cl` [Compound 133] stands “B (B refers to a compound having agonist activity with EC50<100 nM in a cell based assay)”; under `CC(=O)N[C@H](COCc1ccccc1)C(=O)N1CCC2(CC1)CN(S(C)(=O)=O)c1ccccc12` [Compound 51], “E”; under `COc1cccc(C(=O)N2CC3(CCN(C(=O)[C@@H](COCc4ccccc4)NC(=O)CN(C)C)CC3)c3ccccc32)c1` [Compound 74], “E”.
The result for `CS(=O)(=O)N1CC2(CCN(C(=O)[C@@H](COCc3ccccc3)NC(=O)Cn3ccnc3)CC2)c2ccccc21` [Compound 55] reads “E”; that for `CC(=O)NC(C)(C)C(=O)N[C@H](COCc1ccccc1)C(=O)N1CCC2(CC1)CN(S(C)(=O)=O)c1ccccc12` [Compound 126], “B (B refers to a compound having agonist activity with EC50<100 nM in a cell based assay)”; that for `CN1CCC(C(=O)N[C@@H](Cc2ccccc2)C(=O)N2CCC3(CC2)CN(S(C)(=O)=O)c2ccccc23)CC1` [Compound 42], “C (C refers to a compound having antagonist activity of Ki>100 nM and <1500 nM in a cell based assay)”.
Under `CCN(CC)CCCS(=O)(=O)N[C@H](COCc1ccccc1)C(=O)N1CCC2(CC1)CN(S(C)(=O)=O)c1ccccc12` [Compound 155] stands “A (A refers to a compound having antagonist activity with Ki<100 nM in a cell based assay)”.
As to `CN1CCC=C(C(=O)N[C@H](COCc2ccccc2)C(=O)N2CCC3(CC2)CN(S(C)(=O)=O)c2ccccc23)C1` [Compound 7], the Activity result is “D (D refers to a compound having antagonist activity with Ki, <100 nM and agonist activity with EC50<100 nM in a cell-based assay)”.
